Test results as given in US20250215010A1, “DIAZABICYCLOOCTANE DERIVATIVES USEFUL AS MATRIX METALLOPROTEINASE INHIBITORS” (VASA THERAPEUTICS SPOLKA Z OGRANICZONA ODPOWIEDZIALNOSCIA, priority 2022, published 2025).
Like-named read-outs stand apart in the source and are kept apart here.

Legend:
Type in all cases: biochemical
MMP1 = target: T1, MMP1 (Homo sapiens, UniProt P03956); test: MMP-1 colorimetric inhibition assay (Enzo kit BML-AK404); conditions: thiopeptide substrate, absorbance 415 nm; read-out: MMP 1 IC50 class
T1 sequence (P03956 100-269 limits assumed): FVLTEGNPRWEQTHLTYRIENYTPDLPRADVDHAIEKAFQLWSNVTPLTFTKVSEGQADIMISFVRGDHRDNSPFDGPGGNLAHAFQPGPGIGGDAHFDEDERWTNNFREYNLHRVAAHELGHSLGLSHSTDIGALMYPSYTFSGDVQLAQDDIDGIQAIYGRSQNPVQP
Procedure, shortened: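 Colorimetric kit run per manufacturer protocol. MMP-1 cleaves a thiopeptide substrate (Ac-PLG-[2-mercapto-4-methylpentanoyl]-LG-OC2H5); released thiol reacts with DTNB, monitored at 415 nm. IC50 (nM) from inhibition curves of normalized values.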

MMP2 = target: T2, MMP2 (Homo sapiens, UniProt P08253); test: MMP-2 colorimetric inhibition assay (Enzo kit BML-AK408); conditions: thiopeptide substrate, absorbance 415 nm; read-out: MMP 2 IC50 class
T2 sequence (P08253 110-660): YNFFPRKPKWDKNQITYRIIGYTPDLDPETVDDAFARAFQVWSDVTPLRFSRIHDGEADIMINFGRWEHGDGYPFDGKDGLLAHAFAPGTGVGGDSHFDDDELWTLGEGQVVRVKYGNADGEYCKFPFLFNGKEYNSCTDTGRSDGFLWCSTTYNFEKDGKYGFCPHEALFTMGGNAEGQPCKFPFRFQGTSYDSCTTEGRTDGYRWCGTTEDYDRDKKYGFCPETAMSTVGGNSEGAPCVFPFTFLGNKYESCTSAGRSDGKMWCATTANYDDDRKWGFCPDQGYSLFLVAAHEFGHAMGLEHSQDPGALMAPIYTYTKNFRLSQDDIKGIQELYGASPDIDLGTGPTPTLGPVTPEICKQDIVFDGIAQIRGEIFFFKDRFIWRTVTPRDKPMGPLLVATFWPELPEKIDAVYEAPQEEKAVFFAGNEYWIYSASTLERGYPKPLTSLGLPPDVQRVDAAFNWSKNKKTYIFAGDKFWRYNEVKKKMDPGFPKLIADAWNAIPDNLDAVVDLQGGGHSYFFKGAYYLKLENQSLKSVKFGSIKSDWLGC
Procedure, shortened: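 Cleavage of the thiopeptide Ac-PLG-[2-mercapto-4-methylpentanoyl]-LG-OC2H5 releases a sulfhydryl that reacts with DTNB, read at 415 nm per the kit protocol. IC50 values (nM) come from inhibition curves of normalized data.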

MMP9 = MMP9 (Homo sapiens, UniProt P14780); test: MMP-9 colorimetric inhibition assay (Enzo kit BML-AK410); conditions: thiopeptide substrate, absorbance 415 nm; read-out: MMP 9 IC50 class
Procedure, shortened: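 Colorimetric thioester-substrate assay: hydrolysis of Ac-PLG-[2-mercapto-4-methylpentanoyl]-LG-OC2H5 frees a thiol that reacts with DTNB, read at 415 nm. Run per kit protocol. IC50 (nM) taken from inhibition curves of normalized values.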

MMP13 = target: T3, MMP13 (Homo sapiens, UniProt P45452); test: MMP-13 colorimetric inhibition assay (Enzo kit BML-AK412)
T3 construct: purchased Enzo Life Sciences, Inc. BML-AK412
Procedure, shortened: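 Thiopeptide chromogenic substrate (Ac-PLG-[2-mercapto-4-methylpentanoyl]-LG-OC2H5); MMP-13 hydrolysis of the thioester yields a thiol that reacts with DTNB, read at 415 nm. IC50 values (nM) derived from inhibition curves of normalized data.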

ADAM17 (TACE) = ADAM17 (TACE) (Homo sapiens, UniProt P78536); test: TACE fluorometric inhibition assay (Enzo kit BML-AK310); conditions: quenched fluorogenic peptide, ex/em 320/420 nm; read-out: TACE IC50 class
Procedure, shortened: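 Kit-based TACE assay run per manufacturer's protocol, using quenched fluorogenic peptide Mca-PLAQAV-Dpa-RSSSR-NH2 whose cleavage raises Mca fluorescence. Signal read at ex/em 320/420 nm; IC50 (nM) derived from inhibition curves of normalized values.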

ADAM10 = target: T4, ADAM10 (Homo sapiens, UniProt O14672); test: SensoLyte 520 ADAM10 fluorometric activity assay (AnaSpec AS-72226); conditions: FRET peptide substrate, ex/em 495/520 nm; read-out: ADAM 10 IC50 class
T4 construct: purchased AnaSpec, Inc. AS-72226
T4 sequence (O14672 214-748): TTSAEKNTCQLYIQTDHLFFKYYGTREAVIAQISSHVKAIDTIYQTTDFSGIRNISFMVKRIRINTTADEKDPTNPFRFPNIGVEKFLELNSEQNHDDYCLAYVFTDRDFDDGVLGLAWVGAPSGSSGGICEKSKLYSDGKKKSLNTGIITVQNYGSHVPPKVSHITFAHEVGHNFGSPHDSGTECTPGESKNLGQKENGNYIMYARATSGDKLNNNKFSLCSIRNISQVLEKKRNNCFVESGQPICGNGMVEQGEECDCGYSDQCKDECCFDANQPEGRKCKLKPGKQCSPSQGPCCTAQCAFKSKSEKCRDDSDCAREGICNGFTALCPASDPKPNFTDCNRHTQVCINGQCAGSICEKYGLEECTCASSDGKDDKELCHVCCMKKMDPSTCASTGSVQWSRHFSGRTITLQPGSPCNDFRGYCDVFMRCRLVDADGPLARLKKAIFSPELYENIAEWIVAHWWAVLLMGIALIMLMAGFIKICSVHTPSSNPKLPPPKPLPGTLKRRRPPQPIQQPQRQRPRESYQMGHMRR
Experimental: The inhibitory activities of the compounds of the invention were assessed in 96-well microplate format using MMP1, MMP2, MMP9 and MMP13 colorimetric assay kits and TACE fluorometric assay kit from Enzo Life Sciences, Inc. The inhibitory effect of the compounds of the invention on ADAM10 activity were evaluated in 96-well microplate format using fluorometric assay from AnaSpec, Inc.
SensoLyte® 520 ADAM10 Activity Assay Kit (catalog #AS-72226) is a complete assay system designed to screen ADAM10 inhibitors using FRET-based peptide substrate containing the 5-FAM/QXL™ 520 fluorophore/quencher pair. The fluorescence of 5-FAM is quenched by QXL™ 520 and recovered upon cleavage of the peptide by active ADAM10.
The inhibitory activity of the compounds of the invention against ADAM10 was tested according to the manufacturer's assay protocol and the fluorescence was monitored at excitation/emission wavelengths=495 nm/520 nm using Tecan Infinite® 200 Pro F Nano^+ microplate reader.
The normalized values were analyzed using GraphPadPrism 9 for Windows (GraphPad Software, San Diego, CA, USA) software by plotting inhibition curves and determining the IC50 values (in nM).

[1] = thiopeptide substrate, absorbance 415 nm, read-out: MMP 13 IC50 class

MMP9, sequence (P14780 94-707): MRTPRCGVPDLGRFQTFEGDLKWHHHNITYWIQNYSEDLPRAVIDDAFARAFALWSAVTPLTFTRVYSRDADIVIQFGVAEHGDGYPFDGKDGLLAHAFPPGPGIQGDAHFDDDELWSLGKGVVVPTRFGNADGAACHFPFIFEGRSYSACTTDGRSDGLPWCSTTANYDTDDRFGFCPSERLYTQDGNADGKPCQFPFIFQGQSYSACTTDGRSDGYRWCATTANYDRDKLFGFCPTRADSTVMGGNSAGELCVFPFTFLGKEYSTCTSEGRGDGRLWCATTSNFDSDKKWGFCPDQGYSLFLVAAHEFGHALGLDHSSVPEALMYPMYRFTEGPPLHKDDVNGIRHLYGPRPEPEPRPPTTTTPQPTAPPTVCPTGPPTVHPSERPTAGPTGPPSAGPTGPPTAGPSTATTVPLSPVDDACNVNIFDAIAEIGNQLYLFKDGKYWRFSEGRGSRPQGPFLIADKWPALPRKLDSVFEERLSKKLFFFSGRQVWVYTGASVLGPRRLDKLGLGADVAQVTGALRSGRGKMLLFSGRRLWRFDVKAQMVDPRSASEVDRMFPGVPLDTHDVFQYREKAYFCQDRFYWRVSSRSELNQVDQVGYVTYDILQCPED
ADAM17 (TACE), sequence (P78536 215-477 limits assumed): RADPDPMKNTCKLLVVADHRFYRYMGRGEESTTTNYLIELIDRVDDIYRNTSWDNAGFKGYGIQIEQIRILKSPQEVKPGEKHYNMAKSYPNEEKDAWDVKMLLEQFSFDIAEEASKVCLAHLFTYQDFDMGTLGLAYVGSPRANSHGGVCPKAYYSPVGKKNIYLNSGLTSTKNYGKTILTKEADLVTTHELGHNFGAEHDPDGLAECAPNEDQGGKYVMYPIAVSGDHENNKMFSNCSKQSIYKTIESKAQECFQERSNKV

Row | Structure (SMILES) | IC50 (MMP1) [nM] | IC50 (MMP2) [nM] | IC50 (MMP9) [nM] | IC50 (MMP13; [1]) [nM] | IC50 (ADAM17 (TACE)) [nM] | IC50 (ADAM10) [nM] | IC50 (MMP13) [nM]
1 | COCCOC(=O)N1[C@@H]2CC[C@H]1[C@H](C(=O)NO)N(S(=O)(=O)c1ccc(OC3CCCCC3)nc1)C2 [Example 10, 2-methoxyethyl (1S,2R,5R)-3-((6-(cyclohexyloxy)pyridin-3-yl)sulfonyl)-2-(hydroxycarbamoyl)-3,8-diazabicyclo[3.2.1]octane-8-carboxylate] | 50 to 1000 | < 50 | < 50 | < 50 | 1000 to 10000 | > 10000 | 
2 | COCCOC(=O)N1[C@@H]2CC[C@H]1[C@H](C(=O)NO)N(S(=O)(=O)c1ccc(Oc3ccc(OC)cc3)nc1)C2 [Example 18, 2-methoxyethyl (1S,2R,5R)-2-(hydroxycarbamoyl)-3-((6-(4-methoxy-phenoxy)pyridin-3-yl)sulfonyl)-3,8-diazabicyclo-[3.2.1]octane-8-carboxylate] | 1000 to 10000 | < 50 | < 50 | < 50 | 1000 to 10000 | 1000 to 10000 | 
3 | COCCOC(=O)N1[C@@H]2CC[C@H]1[C@H](C(=O)NO)N(S(=O)(=O)c1ccc(Oc3ccc(OC(F)(F)F)cc3)nc1)C2 [Example 19, 2-methoxyethyl (1S,2R,5R)-2-(hydroxycarbamoyl)-3-((6-(4-(trifluoro-methoxy)phenoxy)-pyridin-3-yl)-sulfonyl)-3,8-diaza-bicyclo[3.2.1]octane-8-carboxylate] | 1000 to 10000 | < 50 | < 50 | < 50 | 1000 to 10000 | > 10000 | 
4 | COCCOC(=O)N1[C@@H]2CC[C@H]1[C@H](C(=O)NO)N(S(=O)(=O)c1ccc(Oc3ccc(Cl)cc3F)nc1)C2 [Example 20, 2-methoxyethyl (1S,2R,5R)-3-((6-(4-chloro-2-fluoro-phenoxy)pyridin-3-yl)sulfonyl)-2-(hydroxycarbamoyl)-3,8-diazabicyclo[3.2.1]-octane-8-carboxylate] | 50 to 1000 | < 50 | < 50 | < 50 | 50 to 1000 | 1000 to 10000 | 
5 | COCCOC(=O)N1[C@@H]2CC[C@H]1[C@H](C(=O)NO)N(S(=O)(=O)c1ccc(Oc3ccc(F)cc3F)nc1)C2 [Example 21, 2-methoxyethyl (1S,2R,5R)-3-((6-(2,4-difluoro-phenoxy)pyridin-3-yl)sulfonyl)-2-(hydroxycarbamoyl)-3,8-diazabicyclo-[3.2.1]octane-8-carboxylate] | 50 to 1000 | < 50 | < 50 | < 50 | 50 to 1000 | > 10000 | 
6 | COCCOC(=O)N1[C@@H]2CC[C@H]1[C@H](C(=O)NO)N(S(=O)(=O)c1ccc(Oc3ccc(F)c(F)c3)nc1)C2 [Example 22, 2-methoxyethyl (1S,2R,5R)-3-((6-(3,4-difluoro-phenoxy)pyridin-3-yl)sulfonyl)-2-(hydroxycarbamoyl)-3,8-diazabicyclo-[3.2.1]octane-8-carboxylate] | 50 to 1000 | < 50 | < 50 | < 50 | 50 to 1000 | > 10000 | 
7 | COCCOC(=O)N1[C@@H]2CC[C@H]1[C@H](C(=O)NO)N(S(=O)(=O)c1ccc(Oc3ccc(OC(F)F)cc3)nc1)C2 [Example 24, 2-methoxyethyl (1S,2R,5R)-3-((6-(4-(difluoromethoxy)phenoxy)pyridin-3-yl)sulfonyl)-2-(hydroxycarbamoyl)-3,8-diazabicyclo[3.2.1]octane-8-carboxylate] | 1000 to 10000 | < 50 | < 50 | < 50 | 50 to 1000 | 1000 to 10000 | 
8 | COCCOC(=O)N1[C@@H]2CC[C@H]1[C@H](C(=O)NO)N(S(=O)(=O)c1ccc(Oc3ccc(OCC(F)(F)F)cc3)nc1)C2 [Example 25, 2-methoxyethyl (1S,2R,5R)-2-(hydroxycarbamoyl)-3-((6-(4-(2,2,2-trifluoroethoxy)-phenoxy)pyridin-3-yl)sulfonyl)-3,8-diazabicyclo[3.2.1]-octane-8-carboxylate] | 1000 to 10000 | < 50 | < 50 | < 50 | > 10000 | > 10000 | 
9 | COCCOC(=O)N1[C@@H]2CC[C@H]1[C@H](C(=O)NO)N(S(=O)(=O)c1ccc(Oc3ccc(OC)nc3)nc1)C2 [Example 28, 2-methoxyethyl (1S,2R,5R)-2-(hydroxycarbamoyl)-3-((6-((6-methoxy-pyridin-3-yl)oxy)-pyridin-3-yl)-sulfonyl)-3,8-diaza-bicyclo[3.2.1]octane-8-carboxylate] | 50 to 1000 | < 50 | < 50 | < 50 | 1000 to 10000 | > 10000 | 
10 | CCOc1ccc(Oc2ccc(S(=O)(=O)N3C[C@H]4CC[C@@H]([C@@H]3C(=O)NO)N4C(=O)OCCOC)cn2)cc1 [Example 29, 2-methoxyethyl (1S,2R,5R)-3-((6-(4-ethoxyphenoxy)-pyridin-3-yl)-sulfonyl)-2-(hydroxycarbamoyl)-3,8-diazabicyclo-[3.2.1]octane-8-carboxylate] | 50 to 1000 | < 50 | < 50 |  | 1000 to 10000 | > 10000 | < 50
11 | COCCOC(=O)N1[C@@H]2CC[C@H]1[C@H](C(=O)NO)N(S(=O)(=O)c1ccc(Oc3ccc(OC(C)C)cc3)nc1)C2 [Example 30, 2-methoxyethyl (1S,2R,5R)-2-(hydroxycarbamoyl)-3-((6-(4-isopropoxy-phenoxy)pyridin-3-yl)sulfonyl)-3,8-diazabicyclo[3.2.1]-octane-8-carboxylate] | 50 to 1000 | < 50 | < 50 | < 50 | 1000 to 10000 | > 10000 | 
